Test results as given in US10273279B2, “Protease activated receptor-1 (PAR1) derived cytoprotective polypeptides and related methods” (THE SCRIPPS RESEARCH INSTITUTE, priority 2011, dated 2019).

Columns and labels:
[1] = tested on: ERK1/2 phosphorylation in EAhy926 endothelial cells; assay: ERK1/2 phosphorylation in EA.hy.926 endothelial cells, Western blot of lysates (LI-COR Odyssey); type: cell-based, human; details: 5 min; 10 nM APC or thrombin, 10 μM TFLL peptide, 50 μM TR47-66 or scr-TR47-66
Procedure: To assess whether PAR1 cleaved at Arg^46 would generate a PAR1 N-terminus that is capable of promoting PAR1 signaling, we studied the effects of synthetic peptides on ERK1/2 phosphorylation in EAhy926 endothelial cells. […] Relative phosphorylation of ERK1/2 was determined using the LI-COR Odyssey infrared imaging system which permits quantitative analysis over a wide dynamic range.
In this figure (left), anti-pT202Y204-ERK1/2 antibodies appear green while total anti-ERK1/2 antibodies appear red, and orange intensity reflects overlaps. […] The signal for phosphorylated ERK1/2 (green channel) was normalized to the signal for total ERK1/2 antigen (red channel) to quantify relative phosphorylation as a ratio, and the results are seen in the bar graph. […] The control scr-TR47-66 peptide (scrambled residues 47-66) caused no increase.
Methods: EA.hy.926 cells (ATCC; CRL-2922) were grown in 6-well plates in DMEM (Invitrogen #12430) supplemented with glutamax (Invitrogen #35050) and 10% FBS (Hyclone #35-011-CV) in a 37° C. cell incubator with a humidified atmosphere and 5% CO2 in air until confluency. […] Subsequently cells were resuspended in lysis buffer with protein and phosphatase inhibitors, cell lysates were applied to SDS-PAGE gel electrophoresis on 10% Bis-Tris gels with MOPS running buffer (Invitrogen) and transferred to PVDF membrane (Millipore) for Western blot analysis. Blots were blocked in Odyssey blocking buffer (Licor) and incubated with a combination of mouse anti-ERK1/2 (1/2000; Cell Signaling #3A7) and rabbit anti-pT202/204 ERK1/2 (1/1000; cell signaling #D13.14.4E) antibodies in Odyssey blocking buffer (Licor). After washing, blots were incubated with RDye680-labeled donkey anti-mouse (1/10,000; Licor) and IRDye800CW-labeled donkey anti-rabbit (1/10,000), washed again with PBS/0.1% Tween and IR fluorescence of bound antibodies was determined using the Odyssey (Licor).

[2] = tested on: Akt phosphorylation at Ser473 in EA.hy.926 human endothelial cells; assay: Akt Ser473 phosphorylation in EA.hy.926 endothelial cells (in-cell Western); type: cell-based; details: for Ser473-Akt phosphorylation (activation of Akt): Example 7, under the employed experimental conditions; for pSer473-Akt (Akt phosphorylation): 0, 5 or 30 min, TFLL 50 μM, NPND 250 μM, scr-NPND 250 μM
Excerpt: (§1) Activated Protein C (APC) cleaves a synthetic PAR1 tail peptide at Arg^41 and Arg^46; furthermore, APC cleaves SEAP-PAR1 mutants with the mutations R41A or R41Q but not SEAP-PAR1 with both R41Q/R46Q mutations. […] It was thus hypothesized that a new PAR1 N-terminus beginning at residue Asn-47 promotes PAR1 signaling and APC cytoprotective activities. Since phosphorylation of signaling network components is useful for monitoring activation of signaling pathways, the effects of synthetic PAR1 peptides on Akt and ERK1/2 phosphorylation in EA.hy.926 human endothelial cells were studied. Cells were treated for 0, 5 or 30 min with peptides prior to cell fixation, permeabilization of cells and subsequent immunoblotting analysis (“in-cell Western blotting”). Relative phosphorylation of Akt at Ser^473 (pSer^473-Akt) or of ERK1/2 at Thr202/204 (pERK1/2) in endothelial cells was quantified using the LI-COR Odyssey infrared (IR) fluorescence imaging system which permits “in cell” Western blots. The Odyssey permits simultaneous quantification of different antibodies that yield either red or green signals.
(§2) Methods: EA.hy.926 cells (ATCC: CRL-2922) were grown in black clear bottom 96 well plates (Nunc) in DMEM (Invitrogen #12430) supplemented with glutamax (Invitrogen #35050) and 10% FBS (Hyclone #35-011-CV) in a 37° C. cell incubator with a humidified atmosphere and 5% CO2 in air until confluency. Cells were treated for 0, 5 or 30 min with PAR1 peptides TFLL (50 μM), NPND (250 μM) or scr-NPND (250 μM) or with vehicle in serum free media. Subsequently cells were fixed with methanol free 4% para-formaldehyde (Pierce), washed with phosphate buffered saline (PBS; Invitrogen) containing 1% triton X-100 and blocked with Odyssey blocking buffer (Licor). Cells were incubated with rabbit anti-pT202/Y204 ERK1/2 (1/1000; Cell signaling D13.14.4E) or rabbit anti-pSer^473 (1/100; cell signaling D9E) with Odyssey blocking buffer. After washing with PBS/0.1% Tween (1/800), IRDye 800CW-labelled secondary goat anti-rabbit antibodies (Licor) were added to the cells in Odyssey blocking buffer and 1/10,000 Draq5 (Biostatus) for cell normalization. After final washing with PBS/0.1% Tween IR, the fluorescence of bound antibodies was determined using the Odyssey (Licor). Background fluorescence was determined by omitting the primary antibody and subtracting values for controls from all other observed values.

[3] = tested on: glycogen synthase kinase 3β (GSK3β) phosphorylation at Ser9; assay: GSK3β Ser9 phosphorylation in endothelial cells; type: cell-based, human; details: for Ser9-GSK3β phosphorylation: Example 6
Procedure: To further confirm activation of Akt by the TR47-66 peptide, Akt-mediated inactivation of glycogen synthase kinase 3β (GSK3β) via phosphorylation at Ser9 was determined. GSK3β is a well-known downstream substrate for Akt.

[4] = tested on: ERK1/2 phosphorylation at Thr202/204 in EA.hy.926 human endothelial cells; assay: ERK1/2 phosphorylation in EA.hy.926 endothelial cells (in-cell Western); type: cell-based; details: for ERK1/2 phosphorylation (pERK1/2): 0, 5 or 30 min, TFLL 50 μM, NPND 250 μM, scr-NPND 250 μM; for activation of ERK1/2: Example 7
Excerpt: as §1, §2

| Substance | increase in ERK1/2 phosphorylation (phospho/total ERK1/2 ratio) [1] | Ser473-Akt phosphorylation (activation of Akt) [2] | Ser9-GSK3β phosphorylation [3] | ERK1/2 phosphorylation (pERK1/2) [4] | pSer473-Akt (Akt phosphorylation) [2] | phosphorylation of GSK3β at Ser9 ([3]; Example 7) | activation of ERK1/2 [4] | pSer473-Akt (Akt phosphorylation) ([2]; listed as NPND) | Akt phosphorylation at Ser473 in the presence of the PAR1 inhibitor SCH79797 ([2]; with SCH79797) |
| --- | --- | --- | --- | --- | --- | --- | --- | --- | --- |
| thrombin | 3 fold | neither thrombin nor TRAP induced |  |  |  |  |  |  |  |
| GDENENEKPNWYELKEPDSF (scrambled sequence) [scr-TR47-66, control scrambled TR47-66 peptide containing scrambled residues 47-66, reference compound] | no increase |  | no phosphorylation | essentially no effect | essentially no effect |  |  |  |  |
| APC: Activated Protein C, serine protease with anticoagulant and cytoprotective cell signaling activities | 1.5 fold | robust activation of Akt |  |  |  | sustained phosphorylation | transient but modest activation |  |  |
| NPNDKYEPFWEDEEKNESGL (listed as Homo sapiens) [TR47-66] |  | induced activation of Akt | induced significant Ser9-GSK3β phosphorylation starting at 30 min | essentially no effect | increased Akt phosphorylation at Ser^47 |  | failed to induce any noticeable activation | time-dependent sustained increase | failed to induce Akt phosphorylation |
